Several values for one entry are separate records, joined by “and”; a condition that tells them apart may be missing. Equal values may be shown once.
Legend:
Format in all cases: cell-based
[1] = system: Caspase activity, U2-OS; test: Caspase inhibition assay, U2-OS; conditions: for inhibition at 1 µM / inhibition at 5 µM: Homo sapiens, U2OS; for inhibition at 5 µM / % Caspase inhibition: 5 μM
[2] = system: Caspase activity, U937 cell extracts; test: Caspase inhibition assay, U937 cell extracts; conditions: for inhibition at 1 µM / inhibition at 5 µM: Homo sapiens, U-937; for inhibition at 5 µM / % Caspase inhibition: 5 μM
Protocol: (§1) The time-dependent inhibition of caspase induced by the compounds described in this invention was analysed. […] Caspase activity was assayed using Saos-2 or U937 cell extracts and Ac-DEVD-afc (N-acetyl-Asp-Glu-Val-Asp-afc(7-amino-4-trifluoromethyl coumarin)) as substrate (20 μM). Caspase activity was continuously monitored by the liberation of fluorescent afc using a Cytofluor 4000 fluorimeter (excitation 400 nm; emission 508 nm) for 1 hour. The effect of the compounds on the caspase activity was expressed as the percentage of inhibition in the fluorescence signal of treated cells vs. the non-treated cells (control).

[3] = system: U937 cell line; test: MTT assay, toxicity (cell viability), U937
Protocol: (§2) The MTT assay measures cell proliferation as well as reduction in cell viability when metabolic events lead to apoptosis or necrosis. It can also be used to assess the rate of survival of a given cell line when it is incubated in the presence of xenobiotics. The reduction of tetrazolium salts is accepted as a reliable way to analyse cell proliferation. The yellow tetrazolium MTT (3-(4,5-dimethylthiazolyl-2)-2,5-diphenyltetrazolium bromide) is reduced by metabolically active cells and results in the intracellular formation of purple formazan that can be spectrophotometrically measured after solubilisation with DMSO.
(§3) The MTT assay was used in this invention to assess the toxicity of compounds at different concentrations. To analyse their potential impairment in cell viability, compounds were added to Saos-2 and U937 cell lines at different concentrations and incubated at different times. Results are expressed by percentage cell viability.

[4] = system: Saos-2 cell line; test: MTT assay, toxicity (cell viability), Saos-2
Protocol: as §2, §3

[5] = system: Caspase activity, HeLa; test: Caspase inhibition assay, HeLa; conditions: for inhibition at 1 µM / inhibition at 5 µM: Homo sapiens; for inhibition at 5 µM / % Caspase inhibition: 5 μM
[6] = system: Caspase activity, Saos-2 cell extracts; test: Caspase inhibition assay, Saos-2 cell extracts; conditions: for inhibition at 1 µM: Homo sapiens; for % Caspase inhibition: 5 μM
Protocol: as §1

NC(=O)CN(CCc1ccc(Cl)cc1Cl)C(=O)C1CC(=O)N(CCc2ccc(Cl)cc2Cl)CC(=O)N1CCC(c1ccccc1)c1ccccc1 (centres unmarked) [I.1, 1-[2-(2,4-Dichlorophenyl)ethyl]-4-(3,3-diphenylpropyl)-3,7-dioxo[1,4]-diazepane-5-carboxylic acid carbamoylmethyl-[2-(2,4-dichlorophenyl)-ethyl]amide]
inhibition at 1 µM ([1]; 24 h): 0%
inhibition at 5 µM ([1]; 24 h): 0%
inhibition at 1 µM ([1]; 48 h): 58%
inhibition at 5 µM ([1]; 48 h): 54%
inhibition at 1 µM ([1]; 72 h): 1%
inhibition at 5 µM ([1]; 72 h): 25%
inhibition at 1 µM ([2]; U937, 24 h): 0%
inhibition at 5 µM ([2]; U937, 24 h): 19%
inhibition at 1 µM ([2]; U937, 48 h): 14%
inhibition at 5 µM ([2]; U937, 48 h): 19%
inhibition at 1 µM ([2]; U937, 72 h): 12%
inhibition at 5 µM ([2]; U937, 72 h): 46%
% Cell viability ([3]; U937, 24 h, 1 μM): 100%
% Cell viability ([3]; U937, 24 h, 5 μM): 98% and 90%
% Cell viability ([3]; U937, 24 h, 10 μM): 95% and 87%
% Cell viability ([3]; U937, 24 h, 25 μM): 59%
% Cell viability ([3]; U937, 24 h, 50 μM): 27%
% Cell viability ([3]; U937, 48 h, 1 μM): 100%
% Cell viability ([3]; U937, 48 h, 5 μM): 97% and 94%
% Cell viability ([3]; U937, 48 h, 10 μM): 99% and 83%
% Cell viability ([3]; U937, 72 h, 1 μM): 98%
% Cell viability ([3]; U937, 72 h, 5 μM): 89%
% Cell viability ([3]; U937, 72 h, 10 μM): 67%
% Cell viability ([4]; Saos-2, 24 h, 1 μM): 99%
% Cell viability ([4]; Saos-2, 24 h, 5 μM): 100%
% Cell viability ([4]; Saos-2, 24 h, 10 μM): 96% and 100%
% Cell viability ([4]; Saos-2, 24 h, 25 μM): 63%
% Cell viability ([4]; Saos-2, 24 h, 50 μM): 19%
% Cell viability ([4]; Saos-2, 48 h, 1 μM): 100% and 97%
% Cell viability ([4]; Saos-2, 48 h, 5 μM): 100% and 94%
% Cell viability ([4]; Saos-2, 48 h, 10 μM): 100% and 97%
% Cell viability ([4]; Saos-2, 48 h, 25 μM): 19%
% Cell viability ([4]; Saos-2, 48 h, 50 μM): 11%
% Cell viability ([4]; Saos-2, 72 h, 1 μM): 89%
% Cell viability ([4]; Saos-2, 72 h, 5 μM): 88%
% Cell viability ([4]; Saos-2, 72 h, 10 μM): 80%
% Cell viability ([4]; Saos-2, 72 h, 25 μM): 8%
inhibition at 1 µM ([5]; 24 h): 29%
inhibition at 5 µM ([5]; 24 h): 31%
inhibition at 1 µM ([5]; 48 h): 75%
inhibition at 5 µM ([5]; 48 h): 78%
inhibition at 1 µM ([5]; 72 h): 34%
inhibition at 5 µM ([5]; 72 h): 33%
inhibition at 1 µM ([6]; Saos-2, 24 h): 21%
inhibition at 1 µM ([6]; Saos-2, 48 h): 17%
inhibition at 1 µM ([6]; Saos-2, 72 h): 4%

COc1ccccc1CCN(CC(N)=O)C(=O)C1CC(=O)N(CCc2ccc(Cl)cc2Cl)CC(=O)N1CCC(c1ccccc1)c1ccccc1 (centres unmarked) [I.7, 1-[2-(2,4-Dichlorophenyl)ethyl]-4-(3,3-diphenylpropyl)-3,7-dioxo[1,4]diazepane-5-carboxylic acid carbamoylmethy-[2-(2-methoxyphenyl)ethyl]amide]
% Caspase inhibition ([1]; 24 h): 0%
% Caspase inhibition ([1]; 48 h): 31%
% Caspase inhibition ([1]; 72 h): 33%
% Caspase inhibition ([2]; U937, 24 h): 10%
% Caspase inhibition ([2]; U937, 48 h): 8%
% Caspase inhibition ([2]; U937, 72 h): 2%
% Cell viability ([3]; U937, 24 h, 1 μM): 99%
% Cell viability ([3]; U937, 24 h, 5 μM): 95%
% Cell viability ([3]; U937, 24 h, 10 μM): 93%
% Cell viability ([3]; U937, 48 h, 1 μM): 100%
% Cell viability ([3]; U937, 48 h, 5 μM): 100%
% Cell viability ([3]; U937, 48 h, 10 μM): 97%
% Cell viability ([4]; Saos-2, 24 h, 1 μM): 95%
% Cell viability ([4]; Saos-2, 24 h, 5 μM): 99%
% Cell viability ([4]; Saos-2, 24 h, 10 μM): 98%
% Cell viability ([4]; Saos-2, 48 h, 1 μM): 100%
% Cell viability ([4]; Saos-2, 48 h, 5 μM): 100%
% Cell viability ([4]; Saos-2, 48 h, 10 μM): 100%
% Caspase inhibition ([5]; 24 h): 6%
% Caspase inhibition ([5]; 48 h): 7%
% Caspase inhibition ([5]; 72 h): 11%
% Caspase inhibition ([6]; Saos-2, 24 h): 0%
% Caspase inhibition ([6]; Saos-2, 48 h): 24%

NC(=O)CN(CC1CCCO1)C(=O)C1CC(=O)N(CCc2ccc(Cl)cc2Cl)CC(=O)N1CCC(c1ccccc1)c1ccccc1 (centres unmarked) [I.4, 1-[2-(2,4-Dichlorophenyl)ethyl]-4-(3,3-diphenylpropyl)-3,7-dioxo[1,4]diazepane-5-carboxylic acid carbamoylmethyl(tetrahydrofuran-2-ylmethyl)amide]
inhibition at 1 µM ([1]; 24 h): 0%
inhibition at 1 µM ([1]; 48 h): 23%
inhibition at 1 µM ([1]; 72 h): 54%
inhibition at 1 µM ([2]; U937, 24 h): 0%
inhibition at 1 µM ([2]; U937, 48 h): 12%
inhibition at 1 µM ([2]; U937, 72 h): 0%
% Cell viability ([3]; U937, 24 h, 1 μM): 100%
% Cell viability ([3]; U937, 24 h, 5 μM): 99%
% Cell viability ([3]; U937, 24 h, 10 μM): 87%
% Cell viability ([3]; U937, 48 h, 1 μM): 99%
% Cell viability ([3]; U937, 48 h, 5 μM): 94%
% Cell viability ([3]; U937, 48 h, 10 μM): 95%
% Cell viability ([4]; Saos-2, 24 h, 1 μM): 100%
% Cell viability ([4]; Saos-2, 24 h, 5 μM): 97%
% Cell viability ([4]; Saos-2, 24 h, 10 μM): 100%
% Cell viability ([4]; Saos-2, 48 h, 1 μM): 100%
% Cell viability ([4]; Saos-2, 48 h, 5 μM): 98%
% Cell viability ([4]; Saos-2, 48 h, 10 μM): 99%
inhibition at 1 µM ([5]; 24 h): 48%
inhibition at 1 µM ([5]; 48 h): 14%
inhibition at 1 µM ([5]; 72 h): 35%
inhibition at 1 µM ([6]; Saos-2, 24 h): 55%
inhibition at 1 µM ([6]; Saos-2, 48 h): 9%

CC(=O)NCCNC(=O)CNC(=O)C1CC(=O)N(CCc2ccc(Cl)cc2Cl)CC(=O)N1CCC(c1ccccc1)c1ccccc1 (centres unmarked) [I.3, 1-[2-(2,4-Dichlorophenyl)ethyl]-4-(3,3-diphenylpropyl)-3,7-dioxo[1,4]diazepane-5-carboxylic acid (2-acetylaminoethyl)carbamoylmethylamide]
inhibition at 5 µM ([1]; 24 h): 1%
inhibition at 5 µM ([1]; 48 h): 29%
inhibition at 5 µM ([1]; 72 h): 22%
inhibition at 5 µM ([2]; U937, 24 h): 12%
inhibition at 5 µM ([2]; U937, 48 h): 16%
inhibition at 5 µM ([2]; U937, 72 h): 1%
% Cell viability ([3]; U937, 24 h, 1 μM): 100%
% Cell viability ([3]; U937, 24 h, 5 μM): 95%
% Cell viability ([3]; U937, 24 h, 10 μM): 95%
% Cell viability ([3]; U937, 48 h, 1 μM): 100%
% Cell viability ([3]; U937, 48 h, 5 μM): 100%
% Cell viability ([3]; U937, 48 h, 10 μM): 98%
% Cell viability ([4]; Saos-2, 24 h, 1 μM): 97%
% Cell viability ([4]; Saos-2, 24 h, 5 μM): 93%
% Cell viability ([4]; Saos-2, 24 h, 10 μM): 100%
% Cell viability ([4]; Saos-2, 48 h, 1 μM): 100%
% Cell viability ([4]; Saos-2, 48 h, 5 μM): 100%
% Cell viability ([4]; Saos-2, 48 h, 10 μM): 100%
inhibition at 5 µM ([5]; 24 h): 9%
inhibition at 5 µM ([5]; 48 h): 21%
inhibition at 5 µM ([5]; 72 h): 29%

— patent US20090298781A1, “COMPOUNDS FOR THE INHIBITION OF APOPTOSIS” (CONSEJO SUPERIOR DE, priority 2005, published 2009)
